The source of these data is US12622878B2, “Cationic lipid having cystine skeleton” (NOF CORPORATION, priority 2020, dated 2026).

Data set [1] is described as follows: Measurement of Liposomal pKa (TNS fluorescence) of LNP without nucleic acid. In kind it is physicochemical. The following applies: cationic lipid:DOPC:Chol=52.5:7.5:40 + about 1.5 mol DMG-PEG2k, pH at which relative TNS fluorescence intensity was 50%. As for the experimental part:
Lipid nano particles (LNP) without containing nucleic acid were used for the evaluation of Liposomal pKa.
A 10 mM ethanol solution of cationic lipid, a 5 mM ethanol solution of DOPC, and a 10 mM ethanol solution of Chol were mixed at desired ratio (cationic lipid:DOPC:Chol=52.5:7.5:40 (molar ratio)) in an Eppendorf tube to achieve the total lipid amount of 720 nmol. To the obtained mixture was further added DMG-PEG2k (2 mM ethanol solution) in an amount of about 1.5 mol with respect to the total amount 100 mol of cationic lipid, DOPC, and Chol, and then ethanol was added to prepare an ethanol solution of the lipid (total amount: 360 μL).
(§1) An acidic malic acid buffer (20 mM, pH 3.0) (1080 μL) containing NaCl at a final concentration of 30 mM and an ethanol solution (360 μL) of lipid were each weighed in a syringe. Using an ultra high-speed nanomedicament producing apparatus NanoAssmblr (manufactured by Precision NanoSystems), LNP was prepared under the conditions of addition rate of acidic buffer solution: 3 mL/min, addition rate of ethanol solution of lipid: 1 mL/min, and syringe holder temperature: 25° C., and collected in a 15 mL tube. MES buffer (pH 6.5) (3000 μL) was added to the 15 mL tube, the obtained mixture was transferred to Amicon Ultra 4, and ultrafiltration was performed under centrifugation conditions (25° C., 1000 g, 6 min) to concentrate the mixture to about 100 μL. The obtained concentrate was diluted with PBS to 4 mL, and the mixture was concentrated again under centrifugation conditions (25° C., 1000 g, 6 min), and this operation was performed twice. The obtained concentrate was diluted with PBS to a lipid concentration of 0.5 mM to give a dispersion containing LNP.
20 mM Citrate buffer, sodium phosphate buffer, and tris HCl buffer, each containing NaCl at a final concentration of 150 mM and adjusted to various pHs within the range of pH 3.0 to 10.0, were prepared. TNS (manufactured by Sigma) was diluted with ultrapure water to 0.6 mM. TNS solution (2 μL), dispersions (12 μL) containing LNP prepared in [Experimental Example 1], 1, and buffers adjusted to various pHs (186 μL) were added to a black 96 well plate. The plate was protected from light and shaken at 400 rpm for 10 min. The fluorescence intensity (excitation: 321 nm/emission: 447 nm) was measured using a plate reader (manufactured by TECAN). The relative fluorescence intensity was calculated as a percentage, with the maximum value of the fluorescence intensity in each LNP being 100% and the minimum value being 0%. Furthermore, the pH at which the relative fluorescence intensity was 50% was taken as Liposomal pKa.

Another data set concerns HeLa cells. In words: In vitro gene expression (luciferase mRNA) in HeLa cells. In kind it is cell-based, human. The following applies: FLuc mRNA-encapsulating LNP, 0.4 μg mRNA, FIG. 3. As for the experimental part: (§2) LNP encapsulating mRNA (CleanCap (registered trade mark) FLuc mRNA (TriLink)) that expresses luciferase (cationic lipid:DOPC:Chol:DMG-PEG2k=55:5:40:1 (molar ratio)) was prepared by the method described in [Experimental Example 2], 1.
HeLa cells, which are human cervical cancer cells, were seeded in a 3.5 cm dish at 5.0×10^4 cells/2 mL/Dish 24 hours before transfection. After 24 hours, the medium was exchanged with a culture medium (D-MEM) containing 0.1 mM D-luciferin. Prepared mRNA-encapsulating LNP was diluted with PBS such that the concentration of mRNA was 8 μg/mL. The diluted mRNA-encapsulating LNP solution (50 μL, mRNA: 0.4 μg) was added to the 3.5 cm dish and set in an incubator luminometer KronosDio. The luminescence intensity of luciferase was measured for 2 min every one hour. The cumulative luciferase luminescence intensity for 24 hr was calculated from the obtained time change of expression. For example, “1.0E+06” means “1.0×10^6”.

For another data set, the system named is Jurkat cells. In words: In vitro gene expression (luciferase mRNA) in Jurkat cells. In kind it is cell-based, human. The following applies: FLuc mRNA-encapsulating LNP, 0.4 μg mRNA, FIG. 1. As to the method: as §2
Jurkat cells, which are human leukemia T cells, were seeded in a 3.5 cm dish at 2.0×10^5 cells/1.8 mL/Dish 24 hours before transfection. After 24 hr, a medium (RPMI1640) (200 μL) supplemented with D-luciferin was added to the dish at final concentration of 0.1 mM. Each mRNA-encapsulating LNP dispersion (40 to 120 μL) (0.4 μg as mRNA) was added to the aforementioned dish, and the aforementioned dish was set in an incubator luminometer KronosDio. The luminescence intensity of luciferase was measured for 2 min every three hours. The cumulative luciferase luminescence intensity for 24 hr was calculated from the obtained time change of expression. For example, “5.0E+05” means “5.0×10^5”.

Data set [2] in a line: Particle size, PdI and zeta potential of mRNA-encapsulating LNPs by dynamic light scattering. The following applies: FLuc mRNA-encapsulating LNP, cationic lipid:DOPC:Chol=55:5:40 + about 1 mol DMG-PEG2k; for PdI / particle size: dynamic light scattering; for zeta potential: physiological pH. In kind it is physicochemical. As for the experimental part: A 10 mM ethanol solution of cationic lipid, a 5 mM ethanol solution of DOPC, and a 10 mM ethanol solution of Chol were mixed at desired ratio (cationic lipid:DOPC:Chol=55:5:40 (molar ratio)) in an Eppendorf tube to achieve the total lipid amount of 720 nmol. To the obtained mixture was further added DMG-PEG2k (2 mM ethanol solution) in an amount of about 1 mol with respect to the total amount 100 mol of cationic lipid, DOPC, and Chol, and then ethanol was added to prepare an ethanol solution of the lipid (total amount: 360 μL).
An acidic buffer solution (total amount: 1080 μL) of nucleic acid was prepared by weighing 7.2 μg of mRNA solution (0.6 mg/mL) (CleanCap (registered trade mark) FLuc mRNA (TriLink)) in a 5 mL tube and adding acidic malate buffer (20 mM, pH 3.0) containing NaCl at a final concentration of 30 mM.
as §1, with “buffer solution of nucleic” for “malic”, “acid” for “acid buffer (20 mM, pH 3.0) (1080 μL) containing NaCl at a final concentration of 30 mM”, “solution” for “solution (360 μL)”, “solution of nucleic acid:” for “solution:”, “2” for “0.5”
The particle size, PdI (Polydispersity Index, Polydispersity), and zeta potential of the mRNA-encapsulating LNP prepared by the method of the above-mentioned 1 were measured by a dynamic light scattering method.

A further data set has as its system BALB/c mouse. Briefly: In vivo gene expression (luciferase mRNA), organ luminescence by IVIS. The following applies: tail vein, 0.05 mg mRNA per kg, 4.5 hr after administration, liver and spleen, FIG. 2. As for the experimental part:
as §2
The prepared each mRNA-encapsulating LNP dispersion was administered from the tail vein of BALB/c mouse (male, 5-week-old). The dose of mRNA was set to 0.05 mg per 1 kg body weight of the mouse, and the dose of the mRNA-encapsulating LNP dispersion was set to 10 μL per 1 g body weight of the mouse. After 4.5 hr from the administration of the mRNA-encapsulating LNP dispersion, a PBS solution of D-luciferin potassium was administered into the abdominal cavity of the mouse. The dose of D-luciferin potassium was set to 3 mg per mouse, and the dose of the PBS solution of D-luciferin potassium was set to 200 μL per mouse. After 15 min from the administration of the PBS solution of D-luciferin potassium, the mouse was euthanized, and the liver, spleen, kidney, heart, and lung were isolated. The luminescence in each organ was quantified using an in vivo imaging system (IVIS) with an exposure of 10 sec. The amount of luminescence in each organ was quantified by image analysis using Live Imaging software attached to IVIS. The amount of luminescence (photons/sec) was calculated from the acquired image and used as an index of gene expression activity. […]

By pKa is commonly meant the pH at which an ionisable group is half protonated. Consider `CCCCCCCC/C=C\CCCCCCCC(=O)Oc1ccc(CC(=O)OCCOC(=O)C(CSSCC(NC(=O)CN(C)C)C(=O)OCCOC(=O)Cc2ccc(OC(=O)CCCCCCC/C=C\CCCCCCCC)cc2)NC(=O)CN(C)C)cc1` (stereo not drawn) [Example 1], for which the pKa in data set [1] came out at 6.6. Further, the “gene expression activity (cumulative luciferase luminescence intensity for 24 hr)” value in the data set on HeLa cells is recorded as “superior gene expression activity”. Further, the “gene expression activity (cumulative luciferase luminescence intensity for 24 hr)” value in the data set on Jurkat cells is given as “superior gene expression activity”. Besides, in data set [2], the PdI is on record as 0.105, the particle size worked out at 78 nm and the zeta potential came to 0.01 mV. Besides, the “gene expression activity (amount of luminescence in organ)” value in the data set with BALB/c mouse is “superior gene expression activity in the liver and the spleen”.

As to `CCCCCCCC/C=C\CCCCCCCC(=O)Oc1ccc(CC(=O)OCCOC(=O)C(CSSCC(NC(=O)CN(C)CC)C(=O)OCCOC(=O)Cc2ccc(OC(=O)CCCCCCC/C=C\CCCCCCCC)cc2)NC(=O)CN(C)CC)cc1` (stereo not drawn) [Example 2], in data set [1], the pKa came out at 6.4. Besides, in data set [2], the PdI came to 0.073, the particle size worked out at 82 nm and the zeta potential is −5.02 mV.

As for `CCCCCCCC/C=C\CCCCCCCC(=O)Oc1ccc(CC(=O)OCCOC(=O)C(CSSCC(NC(=O)CN(C)CCC)C(=O)OCCOC(=O)Cc2ccc(OC(=O)CCCCCCC/C=C\CCCCCCCC)cc2)NC(=O)CN(C)CCC)cc1` (stereo not drawn) [Example 3], the pKa in data set [1] was determined as 5.9. For the same molecule, in data set [2], the PdI amounted to 0.100, the particle size was 111 nm and the zeta potential is reported as −11.2 mV.

`CCCCCCCC/C=C\CCCCCCCC(=O)Oc1ccc(CC(=O)OCCOC(=O)C(CSSCC(NC(=O)CN(CC)CC)C(=O)OCCOC(=O)Cc2ccc(OC(=O)CCCCCCC/C=C\CCCCCCCC)cc2)NC(=O)CN(CC)CC)cc1` (stereo not drawn) [Example 4]: in data set [1], the pKa amounted to 6.3. In addition, in data set [2], the PdI is given as 0.091, the particle size came out at 81 nm and the zeta potential is recorded as −7.78 mV.

For the molecule `CCCCCCCC/C=C\CCCCCCCC(=O)Oc1ccc(CC(=O)OCCOC(=O)C(CSSCC(NC(=O)CN(CCC)CCC)C(=O)OCCOC(=O)Cc2ccc(OC(=O)CCCCCCC/C=C\CCCCCCCC)cc2)NC(=O)CN(CCC)CCC)cc1` (stereo not drawn) [Example 5], in data set [1], the pKa came out at 5.3. For the same molecule, in data set [2], the PdI is 0.162, the particle size was 112 nm and the zeta potential is −12.4 mV.

Regarding `CCCCCCCC/C=C\CCCCCCCC(=O)Oc1ccc(CC(=O)OCCOC(=O)C(CSSCC(NC(=O)CN2CCCCC2)C(=O)OCCOC(=O)Cc2ccc(OC(=O)CCCCCCC/C=C\CCCCCCCC)cc2)NC(=O)CN2CCCCC2)cc1` (stereo not drawn) [Example 7], the pKa in data set [1] amounted to 6. Moreover, in data set [2], the PdI amounted to 0.080, the particle size came to 126 nm and the zeta potential is given as −10.3 mV.
